# According to patent publication US12578273B2, “Ph-reversible leuco-BODIPY probe for in situ visualization of extracellular vesicles and their secretion from living cells” (The Chinese University of Hong Kong, priority 2021, dated 2026):
# Assay: pH-dependent spectroscopic properties (pH titration, absorption and fluorescence)
# Assay type: physicochemical
# Description: In each step of pH titration, small volumes (2-10 μL) of HCl at appropriate concentrations (0.1, 10^−2, or 10^−3 M) were pipetted directly into the measurement cell, followed by filling up with 2 mL of 1 μM dye-containing solution [either in a mixture of PBS/ethanol 1:1 (v/v) or 0.5% (v/v) DMSO]. The pH was monitored at 298 K using a digital pH meter (827 pH lab) equipped with a Biotrode (Metrohm, Herisau, Switzerland). Calibration of the instrument was performed with standard aqueous solutions of pH 4, 7, and 9 from Metrohm. Absorption and fluorescence measurements were carried out on an Agilent Cary 5000 spectrophotometer and a Horiba Jobin Yvon spectrometer (Nanolog FL3-2iHR), respectively.
# We investigated the spectroscopic properties of the fluorescent probe as a function of pH in phosphate-buffered saline (PBS) containing 50% ethanol by UV-vis spectrophotometry and fluorimetry (FIGS. 21A-21F, 22-23).
# [1] = pH range of 3-11, C2H5OH/PBS (1:1, v/v)
SMILES,onset of the fluorescence peak at 618 nm (pH) (PBS containing 50% ethanol),red emission peak (PBS containing 50% ethanol),"longest wavelength absorption band (acidic conditions (pH of about 4), PBS containing 50% ethanol)",increase in emission at 618 nm (pH drops from 7.4 to 5.5),increase in emission at 618 nm (pH drops from 7.4 to 6.5),increase in emission at 618 nm (pH drops from 7.4 to 7.0),"pKa (corrected pKa) (reappearance of the absorption bands at 602 nm on reacidification with HCl, PBS containing 50% ethanol)",absorbance as a function of pH [1],fluorescence as a function of pH [1]
CCOC(=O)C(=CC1=[N+]2C(=C(c3ccncc3)c3ccc(C=C(C(=O)OCC)C(=O)OCC)n3[B-]2(F)F)C=C1)C(=O)OCC [BODIPY],about 7.4,618 nm,602 nm,about 15 fold,8 fold,about 3 fold,5.28±0.05,–,–
"CN(C)CCNC(=O)CCc1ccc2n1[B-](F)(F)[N+]1=C(c3ccc[nH]3)C=CC1=C2 [LysoTracker™ Red, reference compound]",–,–,–,–,–,–,–,near-constant,always-on
